What all share (test): cells
One experiment concerns T47D cells. The following applies: Homo sapiens, 72 h, read-out: IC50 (microM) (T47D). How it is done:
(§1) To evaluate the expression status of PBK in several cell lines, western blot analysis was performed using crude cell lysate collected from those cells.
(§2) 100 micro-L of cell suspension was seeded onto 96-well microtiter plate (ViewPlate-96FTC, PerkinElmer). […] Cellular growth was determined using Cell Counting Kit-8 (DOJINDO) at 72 hours after the exposure of the candidate inhibitors. […] Accurate IC50 values were calculated as described previously.

Another experiment has as its system BT-549 cells. The following applies: Homo sapiens, BT-549, 72 h, read-out: IC50 (microM) (BT549). How it is done:
as §1, §2

The test system of another experiment is HT-1197 cells. The following applies: Homo sapiens, HT1197, 72 h, read-out: IC50 (microM) (HT1197). Here is the method:
as §1, §2

One may read the IC50 as the concentration needed to halve the response being measured. In the case of `O=C(N[C@H]1CCCNC1)c1ccc(O)c2[nH]c(C3CC3)nc12` [Example 9, (S)-2-cyclopropyl-4-hydroxy-N-(piperidin-3-yl)-1H-benzo[d]imidazole-7-carboxamide], the IC50 with T47D cells stood at 1.5 µM; with BT-549 cells it was 0.73 µM; in the experiment with HT-1197 cells it was 7.1 µM.

Values taken from patent US20110263566A1 (priority 2008, published 2011).
